This passage reports absorption maximum results from the Deep4Chem optical property database.

Each structure is given as a SMILES string.

The data set can be described thus: solvent given as SMILES.

With `CCOC(=O)COc1ccc(/C=C/C2=C3c4ccccc4C(c4ccc[nH]4)=[N+]3[B-](F)(F)n3ccc(C)c32)cc1`, the absorption maximum is, setting by setting: (in C1CCOC1) 586 nm; (in CC#N) 577 nm; (in CCCCCC) 587 nm; (in CO) 580 nm; (in Cc1ccccc1) 592 nm; (in ClCCl) 585 nm.

Regarding `CCN(CC)c1ccc2c(c1)oc(=O)c1c(=O)oc3c(C)c4oc(=O)c5c(=O)oc6cc(N(CC)CC)ccc6c5c4cc3c12`, the absorption maximum came out at 463 nm (in CS(C)=O) and 458 nm (in ClCCl).

The compound `Cc1ccc(C2=Cc3c4ccccc4c4ccccc4[n+]3[B-](F)(F)O2)cc1` displayed an absorption maximum (in ClC(Cl)Cl) of 437 nm.

The compound `c1ccc(-c2nnc(-c3cc(-n4c5ccccc5c5ccccc54)c(-n4c5ccccc5c5ccccc54)cc3-c3nnc(-c4ccccc4)o3)o2)cc1` came in with an absorption maximum (in ClCCl) of 361 nm.

Take `O=C(O)COc1cccc(-c2c3nc(cc4ccc([nH]4)c(-c4cccc(OCC(=O)O)c4)c4nc(cc5ccc2[nH]5)CC4)CC3)c1`: the absorption maximum (in CS(C)=O) was 736 nm.

`CCNc1cc2c(cc1C)C(c1ccccc1C(=O)O)=C1CCCC(/C=C/C3=[N+](C)c4ccccc4C3(C)C)=C1O2`: the absorption maximum reads like this: (in CC#N) 696 nm; (in CCO) 688 nm; (in CO) 690 nm; (in ClC(Cl)Cl) 702 nm.

In turn, `CCC1=C(C)C2=Cc3ccccc3B(O)N2C1=O` came in with an absorption maximum (in CC#N) of 358 nm; an absorption maximum (in CCCCCC) of 378 nm; an absorption maximum (in CO) of 359 nm; an absorption maximum (in CS(C)=O) of 361 nm; an absorption maximum (in ClC(Cl)Cl) of 362 nm.

For `O=C1NC(=O)C(c2c[nH]c3ccccc23)=C1c1c[nH]c2ccccc12`, the absorption maximum runs as follows: (in C1CCOC1) 450 nm; (in CC#N) 446 nm; (in CC(C)OC(C)C) 443 nm; (in CCCCOCCCC) 445 nm; (in CCO) 460 nm; (in CCOC(C)=O) 445 nm. The absorption maximum runs as follows: (in CN(C)C=O) 454 nm; (in Cc1ccccc1) 447 nm; (in ClCCl) 448 nm.

As to `COCCOCCOCCOCC(COCCOCCOCCOC)Oc1cc(/C=C/c2ccc(C=C3C(=O)c4ccccc4C3=O)cc2)c(OC(COCCOCCOCCOC)COCCOCCOCCOC)cc1/C=C/c1ccc(C=C2C(=O)c3ccccc3C2=O)cc1`, the absorption maximum (in ClCCl) was 489 nm.

`COc1ccc(C2=C3C=c4c(oc5cc6c(cc45)[C@H]4CC[C@]5(C)C(=O)CC[C@H]5[C@@H]4CC6)=[N+]3[B-](F)(F)n3c2cc2c4cc5c(cc4oc23)CC[C@@H]2[C@@H]5CC[C@]3(C)C(=O)CC[C@@H]23)cc1`: the absorption maximum reads like this: (in CCOC(C)=O) 596.5 nm; (in CCOCC) 596.5 nm; (in CO) 595.5 nm.

In turn, `CC(C)(C)c1ccc(-c2c(-c3ccc4c5ccccc5n(-c5ccccc5)c4c3)c(C#N)c(-c3ccc4c5ccccc5n(-c5ccccc5)c4c3)c(-c3ccc(C(C)(C)C)cc3)c2-c2ccc(C(C)(C)C)cc2)cc1` came in with an absorption maximum (in C1CCOC1) of 345 nm.

`C[Si](C)(C)c1ccc(-c2ccc(-c3ccc(-c4ccc(-c5ccc([Si](C)(C)C)s5)s4)c4nsnc34)s2)s1`: the absorption maximum (in C1CCOC1) was determined as 513 nm.

`C(=C\c1ccncn1)/c1ccc(-c2ccc(N(c3ccccc3)c3ccccc3)cc2)cc1`: the absorption maximum stood at 381 nm (in C1CCOC1), 381 nm (in CC#N), 373 nm (in CCCCCCC) and 393 nm (in CS(C)=O).

In the case of `COc1ccc(-c2nnc(-c3cc(-c4nnc(-c5ccc(OC)cc5)o4)c(-n4c5ccccc5c5ccccc54)cc3-n3c4ccccc4c4ccccc43)o2)cc1`, the absorption maximum (in Cc1ccccc1) is given as 371 nm.

Where the note is “in C1CCOC1”, `Cc1cc(C2=C(c3c(C)sc(-c4ccc(-c5nc(-c6ccccc6)c(-c6ccccc6)[nH]5)cc4)c3C)C(F)(F)C(F)(F)C2(F)F)c(C)s1` had an absorption maximum of 336 nm.

For `CC(=O)OC[C@H]1O[C@@H](OCC#Cc2ccc(C3=C4C(C)=CC(/C=C/c5ccc([N+](C)(C)C)cc5)=[N+]4[B-](F)(F)n4c(/C=C/c5ccc([N+](C)(C)C)cc5)cc(C)c43)cc2)[C@H](OC(C)=O)C(OC(C)=O)[C@@H]1OC(C)=O` (some centres not stated), the absorption maximum (in CC#N) is 618 nm.

For `Cc1ccc(-c2ccc(/C=C/c3ccc(Br)n3C)cn2)nc1`, the absorption maximum (in CC#N) turned out to be 373 nm.

`CN(C)c1cc(-c2ccc(C#Cc3ccccc3)cc2)cc2ccccc12`: the absorption maximum turned out to be 302.58 nm (in CC#N), 300.29 nm (in CCO) and 304 nm (in ClCCl).

For the compound `O=C1CC(c2ccc(C(F)(F)F)cc2)c2c(c3ccccc3c3nc4ccccc4nc23)O1` (configuration not stated), under “in ClC(Cl)Cl”, the absorption maximum was 409 nm.

Turning to `c1cc(N2CCCC2)ccn1`, the absorption maximum runs as follows: (in CC1CCCCC1) 293 nm; (in CC#N) 285 nm; (in CCCCCCC) 293 nm; (in CCO) 286 nm; (in CN(C)C=O) 284 nm; (in ClC(Cl)Cl) 285 nm. Also, the absorption maximum (in O) amounted to 280 nm.

On to `COc1ccc(-c2cc3c4c(c2)CCc2cc(-c5ccc(OC)cc5)cc(c2-4)CC3)cc1`, for which the absorption maximum (in ClC(Cl)Cl) came out at 332.1 nm.

The compound `CC[n+]1c(-c2ccccc2)c2cc(NC(N)=O)ccc2c2ccc(NC(N)=O)cc21` had an absorption maximum (in O) of 434 nm.

Regarding `COc1ccc(-n2nc(C#N)c(N3CCCC3)n2)cc1OC`, for the setting “in CC#N”, the absorption maximum amounted to 344 nm.

Turning to `COc1c(-c2c(OC)c3cccc4ccc5oc(=O)cc2c5c43)c2cc(=O)oc3ccc4cccc1c4c32`, under “in CC1CCCO1”, the absorption maximum came to 476 nm.

For `CC\C=C/C=C/C=C/C=C\CCCCCCCC(=O)O`, the absorption maximum is listed as 322.7 nm (in C1COCCO1); 318.9 nm (in CCCCCC); 320.8 nm (in CCCCCCCCCC); 320.6 nm (in CCCCO); 319.2 nm (in CCO); 318.8 nm (in CCOCC). The absorption maximum worked out at 318.6 nm (in CO), 324.8 nm (in ClC(Cl)Cl) and 325.3 nm (in c1ccccc1).

Compound `c1ccc2c(c1)oc1nc3oc4ccc(-n5c6ccccc6c6cc(-n7c8ccccc8c8ccccc87)ccc65)cc4c3cc12` yielded an absorption maximum (in ClC(Cl)Cl) of 354 nm.

As to `CCOC(=O)c1c(-c2cc3ccccc3oc2=O)nn(-c2ccc(Br)cc2)c1C(=O)OCC`, the absorption maximum (in ClCCl) turned out to be 323 nm.

In turn, `Clc1cnc2nn3ccccc3c2n1` registered an absorption maximum (in C1CCOC1) of 404 nm.

`Cc1ccc(C)cc1` showed an absorption maximum (in C1CCCCC1) of 262.88 nm.

Turning to `O=[N+]([O-])c1ccc(-c2nc(/C=C/c3ccc(Cl)cc3)c(/C=C/c3ccc(Cl)cc3)[nH]2)cc1`, the absorption maximum (in ClCCl) is given as 425 nm.

For `CC1=C(c2ccccc2)C(C)=[N+]2C1=C(c1c(-c3ccccn3)nc3ccccn13)c1c(C)cc(C)n1[B-]2(F)F`, for the setting “in ClCCl”, the absorption maximum is recorded as 532 nm.

Take `COc1ccc(/C=C/c2ccc(-c3nnc(-c4ccc(-c5cc6ccccc6s5)cc4)o3)cc2)cc1`: the absorption maximum worked out at 337 nm (in CC#N); 341 nm (in CC(C)=O); 337 nm (in CCCCCCCC); 346 nm (in CCCCCCCCCCO); 347 nm (in CCCCCCCCO); 346 nm (in CCCCCO). In addition, the absorption maximum is listed as 345 nm (in CCCO), 351 nm (in CN(C)C=O), 345 nm (in CO) and 348 nm (in CS(C)=O).

In the case of `N#Cc1cc2ccccc2[nH]1`, the absorption maximum is listed as 281.6 nm (in C1COCCO1) and 279.69 nm (in CC#N).

For the setting “in CCOC(C)=O”, `CCN1CCN(c2ccc(/N=N/c3ccc([N+](=O)[O-])cc3)cc2)CC1` had an absorption maximum of 448 nm.

`Cc1cccc2nc3c(=O)n(C)c(=O)nc-3n(C)c12` came in with an absorption maximum (in CC#N) of 439 nm.

Consider `COc1ccc(O)c(-c2[nH]c(=O)n3c2-c2ccccc2C3=O)c1`, for which the absorption maximum by setting is: (in CC#N) 395 nm; (in CO) 401 nm; (in ClCCl) 399 nm.

Under “in ClCCl”, `c1ccc(N(c2ccccc2)c2ccc(-c3ccc4c(c3)C3(c5ccccc5Oc5ccccc53)c3cc(-c5ccc(N(c6ccccc6)c6ccccc6)cc5)ccc3-4)cc2)cc1` came in with an absorption maximum of 372 nm.

`CCCCN(CCCC)c1ccc(C#Cc2cc(C#Cc3ccc(N(CCCC)CCCC)cc3)c(C#Cc3c(F)c(F)c(F)c(F)c3F)cc2C#Cc2c(F)c(F)c(F)c(F)c2F)cc1`: the absorption maximum (in ClCCl) is given as 438 nm.

`COc1cccc2cc(C#N)c(=N)oc12` registered an absorption maximum (in ClCCl) of 364 nm.

On to `CCCC1(CCC)c2cc(-c3ccc4c(c3)C(CCC)(CCC)c3cc(C(C)(C)CC)ccc3-4)ccc2-c2ccc(-c3ccc4c(c3)C(CCC)(CCC)c3cc(C(C)(C)CC)ccc3-4)cc21`, for which, for the setting “in C1CCCCC1”, the absorption maximum was 351 nm.

On to `C1CCN2CCCn3c2c(c2c3=NCCN=2)C1`, for which the absorption maximum by setting is: (in CC#N) 370 nm; (in CCCCCC) 352 nm.

Where the note is “in Cc1ccccc1”, `Cc1ccc(-n2c(-c3cccc4cc[nH]c34)nc3c4ccccc4c4ccccc4c32)cc1` came in with an absorption maximum of 354 nm.

Consider `Cc1cnc(NC(=O)C2=C(O)c3ccccc3S(=O)(=O)N2C)s1`, for which the absorption maximum (in C1COCCO1) came to 342 nm; the absorption maximum (in CC#N) was found to be 340 nm; the absorption maximum (in CCCCO) is given as 350 nm; the absorption maximum (in CCCO) stood at 350 nm; the absorption maximum (in CCO) amounted to 349 nm; the absorption maximum (in CCOC(C)=O) worked out at 343 nm. Moreover, for the setting “in CO”, the absorption maximum is on record as 346 nm.

`CC(C)(C)c1ccc(-c2cc3c(-c4ccc(C(C)(C)C)cc4)c4cccc5c(-c6ccc(C(C)(C)C)cc6)cc6c(-c7ccc(C(C)(C)C)cc7)c7cccc2c7c3c6c54)cc1` came in with an absorption maximum (in ClCCl) of 456 nm.

For `COc1ccc(-c2cc3c(s2)c(C(=O)c2ccccc2)cc(=O)n3Cc2ccccc2)cc1`, the absorption maximum runs as follows: (in CC#N) 406 nm; (in ClCCl) 416 nm.
